How the values were obtained:
Type in all cases: ADME, organism-based
[1] = Oral bioavailability in Sprague-Dawley rat at 3000 mg/kg, po; conditions: in vivo
[2] = Oral bioavailability in Sprague-Dawley rat at 750 mg/kg, po; conditions: in vivo, pooled result: one value given for 3 cell lines, strains, targets or settings
Rattus norvegicus [3] = assay: Intercompartmental clearance in Sprague-Dawley rat assessed as D-eflornithine at 1000 mg/kg, iv administered as 3 mins short-term infusion; set-up: dose 1000 mg/kg, route intravenous; conditions: in vivo, 0.05 h
Rattus norvegicus [4] = assay: Mean transit time in Sprague-Dawley rat assessed as L-eflornithine at 750 to 3000 mg/kg, po; set-up: dose 750-3000 mg/kg, route oral; conditions: in vivo
Rattus norvegicus [5] = assay: Mean transit time in Sprague-Dawley rat assessed as D-eflornithine at 750 to 3000 mg/kg, po; set-up: dose 750-3000 mg/kg, route oral; conditions: in vivo
Rattus norvegicus [6] = assay: Intercompartmental clearance in Sprague-Dawley rat assessed as L-eflornithine at 375 mg/kg, iv administered as single infusion; set-up: dose 375 mg/kg, route intravenous; conditions: in vivo
Rattus norvegicus [7] = assay: Intercompartmental clearance in Sprague-Dawley rat assessed as L-eflornithine at 1000 mg/kg, iv administered as 3 mins short-term infusion; set-up: dose 1000 mg/kg, route intravenous; conditions: in vivo, 0.05 h
Rattus norvegicus [8] = assay: Intercompartmental clearance in Sprague-Dawley rat assessed as D-eflornithine at 375 mg/kg, iv administered as single infusion; set-up: dose 375 mg/kg, route intravenous; conditions: in vivo
[9] = Central volume of distribution in Sprague-Dawley rat at 1000 mg/kg, iv administered as 3 mins short-term infusion; set-up: dose 1000 mg/kg, route intravenous; conditions: in vivo
[10] = Clearance in Sprague-Dawley rat at 375 mg/kg, iv administered as single infusion; set-up: dose 375 mg/kg, route intravenous; conditions: in vivo
[11] = Clearance in Sprague-Dawley rat at 1000 mg/kg, iv administered as 3 mins short-term infusion; set-up: dose 1000 mg/kg, route intravenous; conditions: in vivo
[12] = Central volume of distribution in Sprague-Dawley rat at 375 mg/kg, iv administered as single infusion; set-up: dose 375 mg/kg, route intravenous; conditions: in vivo

Row | bioavailability [1] | bioavailability [2] | CL (Rattus norvegicus [3]) | MTT (Rattus norvegicus [4]) | MTT (Rattus norvegicus [5]) | CL (Rattus norvegicus [6]) | CL (Rattus norvegicus [7]) | CL (Rattus norvegicus [8]) | Vd [9] | clearance [10] | clearance [11] | Vd [12] | SMILES
1 | 82.7% | 62.3% | 1.2 mL/min/kg | 88 min | 88 min | 1.2 mL/min/kg | 1.2 mL/min/kg | 1.2 mL/min/kg |  |  |  |  | NCCCC(N)(C(=O)O)C(F)F (racemic) [EFLORNITHINE]
2 |  |  |  |  |  |  |  |  | 0.401 L/kg | 12.6 mL/min/kg |  |  | NCCC[C@@](N)(C(=O)O)C(F)F [D-EFLORNITHINE]
3 | 47% | 41% |  |  |  |  |  |  | 0.404 L/kg | 14.5 mL/min/kg | 14.5 mL/min/kg | 0.404 L/kg | NCCC[C@](N)(C(=O)O)C(F)F [EFLORNITHINE, (S)-]
